Test systems include Bacillus subtilis 168; Escherichia coli B; Pseudomonas aeruginosa; Staphylococcus aureus; Bacillus subtilis; Escherichia coli.
Holding throughout (assay): ≥ marks a high value that may be exact or a test limit, other limits are often not marked, values filed in µg/mL are converted to µM
For assay [1], the system named is Candida albicans ATCC 2002.
The test system of assay [2] is Escherichia coli ATCC 25922.
Assay [3] concerns Pseudomonas aeruginosa CMCCB 10104.
Assay [4] has as its system Staphylococcus aureus ATCC 25923.
The test system of assay [5] is Candida parapsilosis ATCC 22019.
Assay [6] deals with Staphylococcus epidermidis ATCC 12228.

Converted amounts (≈) assume the structure as drawn.

As to `CC[C@H](C)[C@H](NC(=O)[C@H](CO)NC(=O)[C@H](CC(C)C)NC(=O)[C@H](Cc1ccccc1)NC(=O)CN)C(=O)N[C@@H](CC(C)C)C(=O)N[C@@H](CCCCN)C(=O)N[C@@H](CCCCN)C(=O)N[C@H](C(=O)N[C@@H](CC(C)C)C(=O)N[C@@H](CCCCN)C(=O)N[C@@H](CCCCN)C(=O)N[C@H](C(=O)N[C@@H](CCSC)C(=O)N[C@@H](C)C(=O)N[C@@H](Cc1cnc[nH]1)C(=O)N[C@@H](CCSC)C(=O)N[C@@H](CCCCN)C(N)=O)C(C)C)C(C)C` [GFLSILKKVLKKVMAHMK], the MIC (commonly the smallest concentration in the dilution series that meets the test's criterion for growth inhibition) with Bacillus subtilis 168 is 1.4 µM (≈ 2.9 µg/mL); against Escherichia coli B, 1.8 µM (≈ 3.73 µg/mL); in the assay with Pseudomonas aeruginosa, 25.3 µM (≈ 52.4 µg/mL); against Staphylococcus aureus it was 13.8 µM (≈ 28.6 µg/mL).
In the case of `CC[C@H](C)[C@H](NC(=O)CN)C(=O)N[C@@H](Cc1ccccc1)C(=O)NCC(=O)N[C@@H](CCCCN)C(=O)N[C@H](C(=O)N[C@@H](CC(C)C)C(=O)NCC(=O)N[C@H](C(=O)NCC(=O)N[C@@H](CCCCN)C(=O)N[C@@H](CCCCN)C(=O)N[C@H](C(=O)N[C@@H](CC(C)C)C(=O)N[C@H]1CSSC[C@@H](C(=O)O)NC(=O)[C@H](CCSC)NC(=O)CNC(=O)[C@H](CO)NC(=O)[C@H](CC(C)C)NC(=O)[C@H](CCC(=O)O)NC1=O)[C@@H](C)O)C(C)C)[C@@H](C)CC` [GIFGKILGVGKKTLCELSGMC], the MIC in assay [1] worked out at 1.49 µM (≈ 3.2 µg/mL); in [2], 2.92 µM (≈ 6.29 µg/mL); in assay [3], 2.92 µM (≈ 6.29 µg/mL); in assay [4], 2.92 µM (≈ 6.29 µg/mL).
In the case of `CC[C@H](C)[C@H](NC(=O)[C@H](CCCCN)NC(=O)[C@H](CCCCN)NC(=O)[C@H](Cc1c[nH]c2ccccc12)NC(=O)[C@H](CC(N)=O)NC(=O)[C@@H](N)C(C)C)C(=O)N[C@@H](CC(C)C)C(=O)N[C@@H](C)C(=O)N[C@@H](CCCCN)C(=O)N[C@H](C(=O)N[C@H](C(=O)N[C@@H](CCCCN)C(=O)N[C@H](C(=O)N[C@@H](C)C(=O)N[C@@H](CCCCN)C(N)=O)C(C)C)[C@@H](C)CC)[C@@H](C)CC` [VNWKKILAKIIKVAK], the MIC amounted to 0.7 µM (≈ 1.23 µg/mL) in the assay on Bacillus subtilis 168, 0.7 µM (≈ 1.23 µg/mL) in the assay on Escherichia coli B, 22.5 µM (≈ 39.4 µg/mL) against Pseudomonas aeruginosa and 4.3 µM (≈ 7.53 µg/mL) with Staphylococcus aureus.
Turning to `CC[C@H](C)[C@H](NC(=O)[C@H](C)NC(=O)[C@H](CCCN=C(N)N)NC(=O)[C@H](Cc1ccc(O)cc1)NC(=O)[C@H](CC(C)C)NC(=O)[C@H](CC(N)=O)NC(=O)[C@H](Cc1ccc(O)cc1)NC(=O)CNC(=O)[C@H](C)NC(=O)[C@@H](NC(=O)[C@@H](NC(=O)[C@@H](NC(=O)[C@H](CCCN=C(N)N)NC(=O)[C@@H](NC(=O)[C@@H](NC(=O)[C@@H](NC(=O)[C@@H]1CCCN1C(=O)[C@H](Cc1c[nH]c2ccccc12)NC(=O)[C@H](Cc1ccccc1)NC(=O)[C@@H](N)CCCN=C(N)N)C(C)C)C(C)C)[C@@H](C)CC)[C@@H](C)O)C(C)C)C(C)C)C(=O)N[C@@H](CCCCN)C(=O)N[C@@H](CCCCN)C(=O)N[C@@H](CCCCN)C(=O)O` [RFWPVVIRTVVAGYNLYRAIKKK], the MIC in the assay on Bacillus subtilis is 2.53 µM (≈ 7.03 µg/mL); in [1], 0.211 µM (≈ 0.586 µg/mL); in assay [2], 7.11 µM (≈ 19.8 µg/mL); in assay [4], 0.422 µM (≈ 1.17 µg/mL).
As for `CC[C@H](C)[C@H](NC(=O)[C@H](Cc1cnc[nH]1)NC(=O)[C@H](CCCCN)NC(=O)[C@H](CC(C)C)NC(=O)[C@H](CC(C)C)NC(=O)[C@H](CO)NC(=O)[C@H](CCSC)NC(=O)[C@H](Cc1c[nH]c2ccccc12)NC(=O)[C@H](CCCCN)NC(=O)[C@@H](N)CCCCN)C(=O)N[C@@H](CC(C)C)C(=O)N[C@@H](CCCCN)C(N)=O` [KKWMSLLKHILK], the MIC in the assay with Bacillus subtilis 168 turned out to be 1.1 µM (≈ 1.68 µg/mL); with Escherichia coli B, 3 µM (≈ 4.57 µg/mL); against Pseudomonas aeruginosa, 25 µM (≈ 38.1 µg/mL); against Staphylococcus aureus it was 28.3 µM (≈ 43.1 µg/mL).
Taken in the same sequence, the figures for `CC[C@H](C)[C@H](NC(=O)[C@H](CCCCN)NC(=O)[C@H](CCCCN)NC(=O)[C@H](Cc1c[nH]c2ccccc12)NC(=O)[C@H](CC(N)=O)NC(=O)[C@@H](N)C(C)C)C(=O)N[C@@H](CC(C)C)C(=O)N[C@@H](C)C(=O)N[C@@H](CCCCN)C(=O)N[C@H](C(=O)N[C@H](C(=O)N[C@@H](CCCCN)C(=O)N[C@H](C(=O)N[C@H](C(=O)N[C@@H](CCCCN)C(N)=O)C(C)C)C(C)C)[C@@H](C)CC)[C@@H](C)CC` [VNWKKILAKIIKVVK] were 0.6 µM (≈ 1.07 µg/mL), 1.4 µM (≈ 2.49 µg/mL), 27.1 µM (≈ 48.2 µg/mL) and 2.2 µM (≈ 3.91 µg/mL).
`CC[C@H](C)[C@H](NC(=O)[C@H](CCCCN)NC(=O)[C@H](CCCCN)NC(=O)[C@H](Cc1c[nH]c2ccccc12)NC(=O)[C@@H](NC(=O)[C@@H](N)CC(N)=O)C(C)C)C(=O)N[C@@H](CC(C)C)C(=O)NCC(=O)N[C@@H](CCCCN)C(=O)N[C@H](C(=O)N[C@H](C(=O)N[C@@H](CCCCN)C(=O)N[C@H](C(=O)N[C@@H](C)C(=O)N[C@@H](CCCCN)C(N)=O)C(C)C)[C@@H](C)CC)[C@@H](C)CC` [NVWKKILGKIIKVAK]: the MIC amounted to 0.7 µM (≈ 1.22 µg/mL) with Bacillus subtilis 168, 1.1 µM (≈ 1.91 µg/mL) against Escherichia coli B, 23.3 µM (≈ 40.5 µg/mL) against Pseudomonas aeruginosa and 19.7 µM (≈ 34.2 µg/mL) against Staphylococcus aureus.
The matching figures for `CC[C@H](C)[C@H](NC(=O)[C@H](CO)NC(=O)[C@H](CC(C)C)NC(=O)[C@H](Cc1ccccc1)NC(=O)CN)C(=O)N[C@@H](CC(C)C)C(=O)N[C@@H](CCCCN)C(=O)N[C@@H](CCCCN)C(=O)N[C@H](C(=O)N[C@@H](CC(C)C)C(=O)NCC(=O)N[C@@H](CCCCN)C(=O)N[C@H](C(=O)N[C@@H](CCSC)C(=O)N[C@@H](C)C(=O)N[C@@H](Cc1cnc[nH]1)C(=O)N[C@@H](CCSC)C(=O)N[C@@H](CCCCN)C(N)=O)C(C)C)C(C)C` [GFLSILKKVLGKVMAHMK]: 1.3 µM (≈ 2.6 µg/mL), 1.8 µM (≈ 3.6 µg/mL), 14.4 µM (≈ 28.8 µg/mL) and 4.3 µM (≈ 8.6 µg/mL).
Taken in the same sequence, the figures for `CC[C@H](C)[C@H](NC(=O)[C@H](CCCCN)NC(=O)[C@H](CO)NC(=O)[C@H](Cc1c[nH]c2ccccc12)NC(=O)[C@H](CCSC)NC(=O)CN)C(=O)N[C@@H](CC(C)C)C(=O)NCC(=O)N[C@@H](Cc1cnc[nH]1)C(=O)N[C@@H](CC(C)C)C(N)=O` [GMWSKILGHL] were 22.5 µM (≈ 25.7 µg/mL), at least 100 µM, above 100 µM and above 100 µM.
For the compound `CC[C@H](C)[C@H](NC(=O)CNC(=O)[C@H](CCCCN)NC(=O)CNC(=O)[C@@H](NC(=O)[C@H](Cc1ccccc1)NC(=O)[C@H](CCCCN)NC(=O)[C@H](CO)NC(=O)[C@H](Cc1ccccc1)NC(=O)[C@H](CC(C)C)NC(=O)CN)C(C)C)C(=O)N[C@@H](CCCCN)C(=O)N[C@@H](CC(N)=O)C(=O)N[C@@H](Cc1ccccc1)C(=O)N[C@@H](CC(C)C)C(=O)N[C@H](C(=O)N[C@@H](CCCCN)C(=O)NCC(=O)N[C@H](C(=O)N[C@@H](CCCCN)C(=O)N[C@@H](Cc1cnc[nH]1)C(=O)N[C@H](C(=O)NCC(=O)N[C@@H](CCCCN)C(=O)N[C@@H](CCC(=O)O)C(=O)N[C@H](C(=O)NCC(=O)N[C@@H](CCSC)C(=O)N[C@@H](CC(=O)O)C(=O)N[C@H](C(=O)N[C@H](C(=O)N[C@@H](CCCN=C(N)N)C(=O)N[C@H](C(=O)NCC(=O)N[C@H](C(=O)N[C@@H](CC(=O)O)C(=O)N[C@H](C(=O)N[C@@H](C)C(=O)NCC(=O)N[C@H]1CSSC[C@@H](C(=O)O)NC(=O)[C@H](C(C)C)NC(=O)CNC(=O)[C@H](CCCCN)NC(=O)[C@H]([C@@H](C)CC)NC(=O)[C@H](CCCCN)NC1=O)C(C)C)[C@@H](C)CC)C(C)C)[C@@H](C)CC)C(C)C)C(C)C)[C@@H](C)CC)C(C)C)[C@@H](C)CC` [GLFSKFVGKGIKNFLIKGVKHIGKEVGMDVIRVGIDVAGCKIKGVC], the MIC in assay [1] came out at 0.494 µM (≈ 2.4 µg/mL); in [2] it was 0.247 µM (≈ 1.2 µg/mL); in assay [3], 0.247 µM (≈ 1.2 µg/mL); in assay [4], 0.247 µM (≈ 1.2 µg/mL).
On to `CC(C)C[C@H](NC(=O)CNC(=O)[C@@H]1CCCN1C(=O)[C@H](CC(C)C)NC(=O)[C@@H](N)Cc1ccccc1)C(=O)N[C@@H](CCC(=O)O)C(=O)N[C@@H](CS)C(=O)N[C@H](C(=O)N[C@@H](Cc1c[nH]c2ccccc12)C(=O)O)C(C)C` [FLPGLECVW], for which the MIC in assay [1] was at least 188 µM; in assay [2], above 188 µM; in [3], at least 188 µM; in assay [4] it was above 188 µM.
Consider `CC[C@H](C)[C@H](NC(=O)[C@H](CO)NC(=O)[C@H](C)NC(=O)[C@@H](NC(=O)[C@H](CCCCN)NC(=O)[C@H](CCCCN)NC(=O)[C@@H](N)Cc1c[nH]c2ccccc12)[C@@H](C)CC)C(=O)NCC(=O)N[C@@H](CCCCN)C(=O)N[C@@H](CCC(=O)O)C(=O)N[C@H](C(=O)N[C@@H](CC(C)C)C(=O)N[C@@H](CCCCN)C(=O)N[C@@H](C)C(=O)N[C@@H](CC(C)C)C(N)=O)C(C)C` [WKKIASIGKEVLKAL], for which the minimum inhibitory concentration (MIC) in the assay with Bacillus subtilis is at least 125 µM; with Escherichia coli, 62 µM (≈ 104 µg/mL).
For the compound `CC[C@H](C)[C@H](NC(=O)[C@H](C)NC(=O)CNC(=O)[C@H](CC(C)C)NC(=O)[C@@H](N)Cc1ccccc1)C(=O)N[C@@H](C)C(=O)N[C@@H](CCC(N)=O)C(=O)N[C@@H](C)C(=O)N[C@@H](CC(C)C)C(=O)N[C@H](C(=O)N[C@@H](CO)C(=O)N[C@@H](CC(C)C)C(=O)N[C@@H](CC(C)C)C(=O)NCC(=O)N[C@@H](CCCCN)C(=O)N[C@@H](CC(C)C)C(N)=O)[C@@H](C)O` [FLGAIAQALTSLLGKL], the figures for the MIC in assay [5], in assay [2] and in assay [6] were at least 64 µM, above 128 µM and 8 µM (≈ 12.9 µg/mL), respectively.

The values are drawn from DBAASP.
